Laboratory results as given in patent publication US12383499B2, “Scale up synthesis of silicasome nanocarriers” (The Regents of the University of California, priority 2018, dated 2025).
Structures can show the parent of a compound that is named as a salt.

Tests used:
[1] = tested on: non-metastatic PDAC; conditions: cited from earlier work
[2] = tested on: orthotopic MC38 tumor; assay: Efficacy and survival in the orthotopic MC38 tumor chunk colon cancer model; assay type: in vivo, C57BL/6 mice
[3] = Toxicity study (bone marrow, GI tract, liver, body weight); assay type: in vivo, C57BL/6 mice; conditions: 24 h after 4 IV injections of 40 mg/kg irinotecan
Excerpt: Irinotecan exerts major systemic toxicological effects (e.g., neutropenia and diarrhea) when used as a free drug monotherapy or in combination with 5-FU (i.e., FOLFIRI regimen) in CRC (Cunningham et al. (1998) The Lancet, 352, 1413-1418; Rougier et al. (1998) The Lancet, 352: 1407-1412; Saltz et al. (2000) N. Engl. J Med. 343: 905-914). This constitutes one of the principal reasons for considering encapsulated irinotecan delivery. […] The possibility of acute myelosuppression effects was assessed by the collection of whole blood 24 h after the last IV injection, as well as looking at bone marrow cellularity (Id.). […] The visual appearance was confirmed by computer software that semi-quantitatively scored the total marrow cellularity and hematopoietic nuclei in the histology images (FIG. 13, panel A) (Travlos (2006) Toxicol. Pathol. 34: 548-565). […]
To compare the toxicity of different irinotecan formulations, a toxicity study was performed in healthy female C57BL/6 mice using a published protocol (Iusuf et al. (2014) Mol. Cancer Ther. 13: 492-503). […] H&E staining to assess bone marrow and hematopoietic cellularity in the sternum was analyzed by Aperio ImageScope software (Travlos (2006) Toxicol. Pathol. 34: 548-565).

[4] = tested on: orthotopic KPC-derived PDAC tumor; assay: Efficacy and survival in the orthotopic KPC-derived PDAC model; assay type: in vivo, B6/129SF1/J mice; conditions: 40 mg/kg twice per week, three IV administrations, n=3
[5] = tested on: KPC cells; assay: MTS cytotoxicity assay, KPC cells; assay type: cell-based, murine; conditions: KPC pancreatic cancer cells
Procedure: (§1) The cytotoxicity of purified MSNPs was assessed in a standard MTS assay (CellTiter 96® AQueous One Solution Cell Proliferation Assay, Promega). KPC or MC38 cells were plated at a density of 5×10^3 cells per well in a 96-well plate and cultured for 24 hr. The medium was replaced with fresh medium containing the different NPs at the indicated concentrations. Non-treated cells were used as control. After a 48 hr treatment, the medium was replaced with 100 μL fresh medium containing MTS solution (5:1, v/v medium/CellTiter 96® Aqueous stock solution) for further culture at 37° C. for 1 hr. The absorbance of the culture wells at 490 nm was directly recorded by a microplate reader (M5e, Molecular Device, USA). Wells without cells but contained the same MTS solution were used as blank. The relative cell viability (%) is [(the absorption of treated well−blank)/(the absorption of control well−blank)]×100.

[6] = tested on: MC38 cells; assay: MTS cytotoxicity assay, MC38 cells; assay type: cell-based, murine; conditions: MC38 colon cancer cells
Procedure: as §1

Compound	disease-free survival [1]	tumor growth by IVIS bioluminescence imaging ([2]; 40 mg/kg irinotecan equivalent IV twice per week, up to day 21, n=6)	survival (Kaplan-Meier, Log-rank) ([2]; 40 mg/kg irinotecan equivalent IV twice per week, up to six administrations, n=6)	rate of apoptosis (cleaved caspase-3 IHC) in orthotopic tumors ([2]; 24 h after the 4th IV injection, 40 mg/kg, n=3)	bone marrow cellularity / myelosuppressive effects (sternum H&E) [3]	neutrophil count / neutropenia (differential WBC counts) [3]	primary tumor growth and metastasis (IVIS imaging) [4]	in vitro killing effect (MTS) [5]	in vitro killing effect (MTS) [6]
Nc1ccn([C@@H]2O[C@H](CO)[C@@H](O)C2(F)F)c(=O)n1 [gemcitabine]	12.8 months								
CCc1c2c(nc3ccc(OC(=O)N4CCC(N5CCCCC5)CC4)cc13)-c1cc3c(c(=O)n1C2)COC(=O)[C@]3(O)CC [free irinotecan, Irinotecan hydrochloride trihydrate]		no significant tumor growth inhibition	no significant survival benefit	~2.5%	significant myelosuppressive effects	significant degree of neutropenia	inefficient tumor inhibition	most robust killing effect	most robust killing effect
